Measurements: PubChem BioAssay AID1259407 (Chemical Carcinogenesis Research Information System (CCRIS), 2018)
“Also recorded” adds a separate entry of the source. Active and inactive are the calls of the source. No rule for the calls is given here.

System: CCRIS mutagenicity, Ames/micronucleus/aberration tests
Test: CCRIS mutagenicity studies
[1] = Test System: AMES SALMONELLA TYPHIMURIUM, Strain/Indicator: TA98, Metabolic Activation: NONE, Method: PREINCUBATION
[2] = Test System: AMES SALMONELLA TYPHIMURIUM, Strain/Indicator: TA100, Metabolic Activation: NONE, Method: PREINCUBATION
[3] = Test System: AMES SALMONELLA TYPHIMURIUM, Strain/Indicator: TA102, Metabolic Activation: NONE, Method: PREINCUBATION
[4] = Test System: AMES SALMONELLA TYPHIMURIUM, Strain/Indicator: TA100, Metabolic Activation: NONE, Method: STANDARD PLATE
[5] = Test System: AMES SALMONELLA TYPHIMURIUM, Strain/Indicator: TA1537, Metabolic Activation: NONE

N#CC1=C(C#N)C(=O)C(Cl)=C(Cl)C1=O
mutagenic call [1]: inactive; negative
mutagenic call (Test System: AMES SALMONELLA TYPHIMURIUM, Strain/Indicator: TA98, Metabolic Activation: RAT, LIVER, S-9, PHENOBARBITAL AND 5,6-BENZOFLAVONE, Method: PREINCUBATION): inactive; negative
mutagenic call [2]: inactive; negative
mutagenic call [3]: inactive; negative
mutagenic call (Test System: AMES SALMONELLA TYPHIMURIUM, Strain/Indicator: TA102, Metabolic Activation: RAT, LIVER, S-9, PHENOBARBITAL AND 5,6-BENZOFLAVONE, Method: PREINCUBATION): inactive; negative
mutagenic call (Test System: AMES SALMONELLA TYPHIMURIUM, Strain/Indicator: TA104, Metabolic Activation: NONE, Method: PREINCUBATION): active; positive
mutagenic call (Test System: AMES SALMONELLA TYPHIMURIUM, Strain/Indicator: TA104, Metabolic Activation: RAT, LIVER, S-9, PHENOBARBITAL AND 5,6-BENZOFLAVONE, Method: PREINCUBATION): active; positive
mutagenic call (Test System: AMES SALMONELLA TYPHIMURIUM, Strain/Indicator: TA2637, Metabolic Activation: NONE, Method: PREINCUBATION): inactive; negative
mutagenic call (Test System: AMES SALMONELLA TYPHIMURIUM, Strain/Indicator: TA2637, Metabolic Activation: RAT, LIVER, S-9, PHENOBARBITAL AND 5,6-BENZOFLAVONE, Method: PREINCUBATION): active; positive

Clc1ccc2oc3ccccc3c2c1
mutagenic call (Test System: AMES SALMONELLA TYPHIMURIUM, Strain/Indicator: TA98, Metabolic Activation: NONE, Method: STANDARD PLATE): active; positive
mutagenic call (Test System: AMES SALMONELLA TYPHIMURIUM, Strain/Indicator: TA98, Metabolic Activation: RAT, LIVER, S-9, PHENOBARBITAL AND NAPHTHOFLAVONE, Method: STANDARD PLATE): active; positive
mutagenic call [4]: inactive; negative
mutagenic call (Test System: AMES SALMONELLA TYPHIMURIUM, Strain/Indicator: TA100, Metabolic Activation: RAT, LIVER, S-9, PHENOBARBITAL AND NAPHTHOFLAVONE, Method: STANDARD PLATE): inactive; negative

CNC(C)Cc1ccc2c(c1)OCO2 (configuration not stated)
mutagenic call (End Point: In vitro micronucleus, Test System: Chinese hamster lung fibroblast, Metabolic Activation: Hamster, Liver, S-9, Phenobarbital sodium and 5,6-benzoflavone): inactive; negative. n-nitroso-3,4-methylenedioxymethamphetamine (500-900 ug/ml), expected
mutagenic call (End Point: In vitro micronucleus, Test System: Chinese hamster lung fibroblast, Metabolic Activation: None): inactive; negative. n-nitroso-3,4-methylenedioxymethamphetamine (200-600 ug/ml), expected; also recorded: inactive; negative. n-nitroso-3,4-methylenedioxymethamphetamine (50-300 ug/ml), expected t
mutagenic call (End Point: In vitro micronucleus, Test System: Chinese hamster lung fibroblast, Metabolic Activation: Rat, Liver, S-9, Phenobarbital sodium and 5,6-benzoflavone): inactive; negative. n-nitroso-3,4-methylenedioxymethamphetamine (500-900 ug/ml), expected

C=C(C#N)C(=O)OCC(C)C
mutagenic call [4]: inactive; negative
mutagenic call (Test System: AMES SALMONELLA TYPHIMURIUM, Strain/Indicator: TA100, Metabolic Activation: RAT, LIVER, S-9, AROCLOR 1254, Method: STANDARD PLATE): inactive; negative

Nc1ccn(/C=C/C=O)c(=O)n1
mutagenic call (Test System: AMES SALMONELLA TYPHIMURIUM, Strain/Indicator: HISD3052, Metabolic Activation: NONE, Method: STANDARD PLATE): active; positive

OC1C2OC2c2cccc3c2C1(O)c1ccccc1-3 (configuration not stated)
mutagenic call (Test System: AMES SALMONELLA TYPHIMURIUM, Strain/Indicator: TM677, Metabolic Activation: NONE, Method: PREINCUBATION): inactive; negative
mutagenic call (Test System: AMES SALMONELLA TYPHIMURIUM, Strain/Indicator: TM677, Metabolic Activation: RAT, LIVER, POSTMITOCHONDRIAL SUPERNATANT, AROCLOR 1254, Method: PREINCUBATION): inactive; negative

CCCCN(CO)N=O
mutagenic call (Test System: CHINESE HAMSTER V-79, Strain/Indicator: V-79/OUABAIN, Metabolic Activation: NONE): active; positive

COc1cc(NCCCCCNC(C)C)c2ncccc2c1
mutagenic call (Test System: AMES SALMONELLA TYPHIMURIUM, Strain/Indicator: TA97, Metabolic Activation: NONE, Method: PREINCUBATION): inactive; negative
mutagenic call (Test System: AMES SALMONELLA TYPHIMURIUM, Strain/Indicator: TA97, Metabolic Activation: RAT, LIVER, S-9, PHENOBARBITAL AND BETA-NAPHTHOFLAVONE, Method: PREINCUBATION): active; positive
mutagenic call [1]: inactive; negative
mutagenic call (Test System: AMES SALMONELLA TYPHIMURIUM, Strain/Indicator: TA98, Metabolic Activation: RAT, LIVER, S-9, PHENOBARBITAL AND BETA-NAPHTHOFLAVONE, Method: PREINCUBATION): inactive; negative
mutagenic call [2]: inactive; negative
mutagenic call (Test System: AMES SALMONELLA TYPHIMURIUM, Strain/Indicator: TA100, Metabolic Activation: RAT, LIVER, S-9, PHENOBARBITAL AND BETA-NAPHTHOFLAVONE, Method: PREINCUBATION): inactive; negative
mutagenic call [3]: inactive; negative
mutagenic call (Test System: AMES SALMONELLA TYPHIMURIUM, Strain/Indicator: TA102, Metabolic Activation: RAT, LIVER, S-9, PHENOBARBITAL AND BETA-NAPHTHOFLAVONE, Method: PREINCUBATION): inactive; negative
mutagenic call (Test System: E.COLI, Strain/Indicator: WP2UVRA/PKM101, Metabolic Activation: NONE, Method: PREINCUBATION): inactive; negative
mutagenic call (Test System: E.COLI, Strain/Indicator: WP2UVRA/PKM101, Metabolic Activation: RAT LIVER S-9, PHENOBARBITAL AND 5,6-BENZOFLAVONE, Method: PREINCUBATION): inactive; negative

Nc1c2ccccc2nc2ccc([N+](=O)[O-])cc12
mutagenic call [5]: active; positive
mutagenic call (Test System: AMES SALMONELLA TYPHIMURIUM, Strain/Indicator: TA1537, Metabolic Activation: NONE, Method: PREINCUBATION): active; positive

Cc1c2c3c(cccc3c3ccccc13)-c1ccccc1-2
mutagenic call (Test System: AMES SALMONELLA TYPHIMURIUM, Strain/Indicator: TA100, Metabolic Activation: RAT, LIVER, S-9, AROCLOR 1254): active; positive

CS(=O)(=O)O
mutagenic call [4]: inactive; negative
mutagenic call (Test System: AMES SALMONELLA TYPHIMURIUM, Strain/Indicator: TA100, Metabolic Activation: RAT, LIVER, S-9, AROCLOR 1254 (10%), Method: STANDARD PLATE): inactive; negative
mutagenic call (Test System: AMES SALMONELLA TYPHIMURIUM, Strain/Indicator: TA1535, Metabolic Activation: NONE, Method: STANDARD PLATE): inactive; negative
mutagenic call (Test System: AMES SALMONELLA TYPHIMURIUM, Strain/Indicator: TA1535, Metabolic Activation: RAT, LIVER, S-9, AROCLOR 1254 (10%), Method: STANDARD PLATE): inactive; negative

O=CC(Br)CBr (configuration not stated)
mutagenic call [2]: active; positive
mutagenic call (Test System: AMES SALMONELLA TYPHIMURIUM, Strain/Indicator: TA100, Metabolic Activation: RAT, LIVER, MICROSOMES, Method: PREINCUBATION): active; positive
mutagenic call (Test System: UDS RAT HEPATOCYTES, Strain/Indicator: THY INCORP, Metabolic Activation: NONE): inactive; negative

CC(=O)N(CC(O)CO)c1c(I)c(C(=O)NCCO)c(I)c(C(=O)NCC(O)CO)c1I (configuration not stated)
mutagenic call (Test System: AMES SALMONELLA TYPHIMURIUM, Strain/Indicator: TA98, Metabolic Activation: NONE): inactive; negative
mutagenic call (Test System: AMES SALMONELLA TYPHIMURIUM, Strain/Indicator: TA98, Metabolic Activation: RAT, LIVER, S-9): inactive; negative
mutagenic call (Test System: AMES SALMONELLA TYPHIMURIUM, Strain/Indicator: TA100, Metabolic Activation: NONE): inactive; negative
mutagenic call (Test System: AMES SALMONELLA TYPHIMURIUM, Strain/Indicator: TA100, Metabolic Activation: RAT, LIVER, S-9): inactive; negative
mutagenic call (Test System: AMES SALMONELLA TYPHIMURIUM, Strain/Indicator: TA1535, Metabolic Activation: NONE): inactive; negative
mutagenic call (Test System: AMES SALMONELLA TYPHIMURIUM, Strain/Indicator: TA1535, Metabolic Activation: RAT, LIVER, S-9): inactive; negative
mutagenic call [5]: inactive; negative
mutagenic call (Test System: AMES SALMONELLA TYPHIMURIUM, Strain/Indicator: TA1537, Metabolic Activation: RAT, LIVER, S-9): inactive; negative
mutagenic call (Test System: E.COLI, Strain/Indicator: WP2 UVRA, Metabolic Activation: NONE): inactive; negative
mutagenic call (Test System: E.COLI, Strain/Indicator: WP2 UVRA, Metabolic Activation: RAT, LIVER, S-9): inactive; negative
